Results reported in patent US20220251141A1, “IMMUNOMODULATORS” (Bristol-Myers Squibb Company, priority 2019, published 2022).
Numbered stars: 1 amine (or outer) side, 2 acyl side, 3 side chain; on linkers, the order of the positions; unused ones are H or OH. Bridge positions count the residues as written; N and C are the ends. Square brackets hold non-standard residues; d marks the D form. Side chains are listed from the residue outwards. Peptide text beside a SMILES is read from it. * marks the point of attachment. X6 = CC(C)C[C@H](N[*:1])C(=O)C1C[C@H](O)C[C@H]1C(=O)[*:2]; Trp(1-CH2CO2Me) = COC(=O)Cn1cc(C[C@H](N)C(=O)O)c2ccccc21; Trp(1-CH2COOH) = N[C@@H](Cc1cn(CC(=O)O)c2ccccc12)C(=O)O; Trp(1-Me) = Cn1cc(C[C@H](N)C(=O)O)c2ccccc21; X2 = C/C(=N\C#N)NC[C@H](N[*:1])C(=O)[*:2]; Phe(4-F) = N[C@@H](Cc1ccc(F)cc1)C(=O)O; Dab(CONH2) = NC(=O)NCC[C@H](N)C(=O)O; Octyloxycarbonyl = CCCCCCCCOC(=O)*; X8 = N#CNC[C@H](N[*:1])C(=O)[*:2]; Hexyloxycarbonyl = CCCCCCOC(=O)*; Hyp = O=C(O)[C@@H]1C[C@@H](O)CN1; NMeNle = CCCC[C@H](NC)C(=O)O; Pen = CC(C)(S)[C@H](N)C(=O)O; Decanoyl = CCCCCCCCCC(=O)*; Pip = O=C(O)[C@@H]1CCCCN1; NMeA = CN[C@@H](C)C(=O)O; Dab = NCC[C@H](N)C(=O)O; Dap = NC[C@H](N)C(=O)O; Boc = CC(C)(C)OC(=O)*; X10 = CC(C)(C)SC(=O)*; CO = O=C([*:1])[*:2]; Piv = CC(C)(C)C(=O)*; N(Me)OMe = CON(C)*; Moc = COC(=O)*

These molecules were tested against T1, PD-1/PD-L1 (Homo sapiens, UniProt Q9NZQ7) (assay: PD-1/PD-L1 Homogenous Time-Resolved Fluorescence (HTRF) binding assay). Conditions: PD-L1-His 10 nM final, PD-1-Ig 20 nM final; inhibitors pre-incubated with PD-L1-His for 15 m.
T1 construct: TVMV protease site linker (C); made in house; host or cells: HEK293T cells
In short: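 Compounds pre-incubated 15 min with human PD-L1(18-239)-His (10 nM final), then PD-1(25-167)-Ig (20 nM final) added for 15 min, in dPBS with 0.1% BSA and 0.05% Tween-20. Eu-cryptate anti-Ig (1 nM) and APC anti-His (20 nM) added, 30 min equilibration, 665/620 nm ratio read; IC50 reported.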

SMILES	IC50
CCCC[C@H]1C(=O)N(C)[C@@H](CCCC)C(=O)N[C@@H](CC(C)C)C(=O)N[C@H](C(=O)NCC(N)=O)CSCC(=O)N[C@@H](Cc2ccc(O)cc2)C(=O)N(C)[C@@H](C)C(=O)N[C@@H](CC(N)=O)C(=O)N2CCC[C@H]2C(=O)N[C@@H](CNC(=O)OC(C)(C)C)C(=O)N[C@@H](CC(C)C)C(=O)N2C[C@H](O)C[C@H]2C(=O)N[C@@H](Cc2c[nH]c3ccccc23)C(=O)N[C@@H](CCNC(N)=O)C(=O)N[C@@H](Cc2cn(CC(=O)O)c3ccccc23)C(=O)N1C [Example 1018] ({CH2CO}-Y[NMeA]NP[Dap](Boc)L[Hyp]W[Dab(CONH2)][Trp(1-CH2COOH)][NMeNle][NMeNle]LCG-NH2; thioether N-14)	2.9 nM
CCCC[C@H]1C(=O)N(C)[C@@H](CCCC)C(=O)N[C@@H](CC(C)C)C(=O)N[C@H](C(=O)NCC(N)=O)CSCC(=O)N[C@@H](Cc2ccc(O)cc2)C(=O)N(C)[C@@H](C)C(=O)N[C@@H](CC(N)=O)C(=O)N2CCC[C@H]2C(=O)N[C@@H](CNC(=O)SC(C)(C)C)C(=O)N[C@@H](CC(C)C)C(=O)N2C[C@H](O)C[C@H]2C(=O)N[C@@H](Cc2c[nH]c3ccccc23)C(=O)N[C@@H](CCNC(=O)OC)C(=O)N[C@@H](Cc2cn(CC(=O)O)c3ccccc23)C(=O)N1C [Example 1024] ({CH2CO}-Y[NMeA]NP[Dap](X10)L[Hyp]W[Dab](Moc)[Trp(1-CH2COOH)][NMeNle][NMeNle]LCG-NH2; thioether N-14)	4.7 nM
CCCC[C@H]1C(=O)N(C)[C@@H](CCCC)C(=O)N[C@@H](CC(C)C)C(=O)N[C@H](C(=O)NCC(N)=O)CSCC(=O)N[C@@H](Cc2ccc(O)cc2)C(=O)N(C)[C@@H](C)C(=O)N[C@@H](CC(N)=O)C(=O)N2CCC[C@H]2C(=O)N[C@@H](CNC#N)C(=O)N[C@@H](CC(C)C)C(=O)N2C[C@H](O)C[C@H]2C(=O)N[C@@H](Cc2c[nH]c3ccccc23)C(=O)N[C@@H](CCN)C(=O)N[C@@H](Cc2cn(CC(=O)O)c3ccccc23)C(=O)N1C [Example 1021] ({CH2CO}-Y[NMeA]NP[X8]L[Hyp]W[Dab][Trp(1-CH2COOH)][NMeNle][NMeNle]LCG-NH2; thioether N-14)	52 nM
CCCCCCCCOC(=O)NCC[C@@H]1NC(=O)[C@H](Cc2c[nH]c3ccccc23)NC(=O)[C@@H]2C[C@@H](O)CN2C(=O)[C@H](CC(C)C)NC(=O)[C@H](CNC(=O)OCCCCCCCC)NC(=O)[C@@H]2CCCN2C(=O)[C@H](CC(N)=O)NC(=O)[C@H](C)N(C)C(=O)[C@H](Cc2ccc(O)cc2)NC(=O)CSC[C@@H](C(=O)NCC(N)=O)NC(=O)[C@H](CC(C)C)NC(=O)[C@H](CCCC)N(C)C(=O)[C@H](CCCC)N(C)C(=O)[C@H](Cc2cn(CC(=O)OC)c3ccccc23)NC1=O [Example 1013] ({CH2CO}-Y[NMeA]NP[Dap](Octyloxycarbonyl)L[Hyp]W[Dab](Octyloxycarbonyl)[Trp(1-CH2CO2Me)][NMeNle][NMeNle]LCG-NH2; thioether N-14)	1100 nM
CCCC[C@H]1C(=O)N(C)[C@@H](CCCC)C(=O)N[C@@H](CC(C)C)C(=O)N[C@H](C(=O)NCC(N)=O)CSCC(=O)N[C@@H](Cc2ccc(O)cc2)C(=O)N(C)[C@@H](C)C(=O)N[C@@H](CC(N)=O)C(=O)N2CCC[C@H]2C(=O)N[C@@H](CN/C(C)=N/C#N)C(=O)N[C@@H](CC(C)C)C(=O)N2C[C@H](O)C[C@H]2C(=O)N[C@@H](Cc2c[nH]c3ccccc23)C(=O)N[C@@H](CCN)C(=O)N[C@@H](Cc2cn(CC(=O)O)c3ccccc23)C(=O)N1C [Example 1009] ({CH2CO}-Y[NMeA]NP[X2]L[Hyp]W[Dab][Trp(1-CH2COOH)][NMeNle][NMeNle]LCG-NH2; thioether N-14)	5.5 nM
CCCCCCOC(=O)NCC[C@@H]1NC(=O)[C@H](Cc2c[nH]c3ccccc23)NC(=O)[C@@H]2C[C@@H](O)CN2C(=O)[C@H](CC(C)C)NC(=O)[C@H](CNC(=O)OCCCCCC)NC(=O)[C@@H]2CCCN2C(=O)[C@H](CC(N)=O)NC(=O)[C@H](C)N(C)C(=O)[C@H](Cc2ccc(O)cc2)NC(=O)CSC[C@@H](C(=O)NCC(N)=O)NC(=O)[C@H](CC(C)C)NC(=O)[C@H](CCCC)N(C)C(=O)[C@H](CCCC)N(C)C(=O)[C@H](Cc2cn(CC(=O)OC)c3ccccc23)NC1=O [Example 1016] ({CH2CO}-Y[NMeA]NP[Dap](Hexyloxycarbonyl)L[Hyp]W[Dab](Hexyloxycarbonyl)[Trp(1-CH2CO2Me)][NMeNle][NMeNle]LCG-NH2; thioether N-14)	12 nM
CCCCCCCCCC(=O)NCC[C@@H]1NC(=O)[C@H](Cc2c[nH]c3ccccc23)NC(=O)[C@@H]2C[C@@H](O)CN2C(=O)[C@H](CC(C)C)NC(=O)[C@H](CNC(=O)CCCCCCCCC)NC(=O)[C@@H]2CCCN2C(=O)[C@H](CC(N)=O)NC(=O)[C@H](C)N(C)C(=O)[C@H](Cc2ccc(O)cc2)NC(=O)CSC[C@@H](C(=O)NCC(N)=O)NC(=O)[C@H](CC(C)C)NC(=O)[C@H](CCCC)N(C)C(=O)[C@H](CCCC)N(C)C(=O)[C@H](Cc2cn(CC(=O)O)c3ccccc23)NC1=O [Example 1003] ({CH2CO}-Y[NMeA]NP[Dap](Decanoyl)L[Hyp]W[Dab](Decanoyl)[Trp(1-CH2COOH)][NMeNle][NMeNle]LCG-NH2; thioether N-14)	37 nM

Continued, values first:

IC50	SMILES
1.2 nM	CCCC[C@H]1C(=O)N(C)[C@@H](CCCC)C(=O)N[C@@H](CC(C)C)C(=O)N[C@H](C(=O)NCC(N)=O)CSCC(=O)N[C@@H](Cc2ccc(O)cc2)C(=O)N(C)[C@@H](C)C(=O)N[C@@H](CC(N)=O)C(=O)N2CCC[C@H]2C(=O)N[C@@H](CNC(=O)OC(C)(C)C)C(=O)N[C@@H](CC(C)C)C(=O)C2C[C@H](O)C[C@H]2C(=O)N[C@@H](Cc2c[nH]c3ccccc23)C(=O)N[C@@H](CCNC(=O)OC(C)(C)C)C(=O)N[C@@H](Cc2cn(CC(=O)OC)c3ccccc23)C(=O)N1C (stereo partly shown) [Example 2002] ({CH2CO}-Y[NMeA]NP[Dap](Boc)[X6]W[Dab](Boc)[Trp(1-CH2CO2Me)][NMeNle][NMeNle]LCG-NH2; thioether N-13)
1.4 nM	CCCC[C@H]1C(=O)N(C)[C@@H](CCCC)C(=O)N[C@@H](CC(C)C)C(=O)N[C@H](C(=O)NCC(N)=O)CSCC(=O)N[C@@H](Cc2ccc(O)cc2)C(=O)N(C)[C@@H](C)C(=O)N[C@@H](CC(N)=O)C(=O)N2CCC[C@H]2C(=O)N[C@@H](CNC(=O)N(C)OC)C(=O)N[C@@H](CC(C)C)C(=O)N2C[C@H](O)C[C@H]2C(=O)N[C@@H](Cc2c[nH]c3ccccc23)C(=O)N[C@@H](CCNC(=O)N(C)OC)C(=O)N[C@@H](Cc2cn(CC(=O)OC)c3ccccc23)C(=O)N1C [Example 1036] ({CH2CO}-Y[NMeA]NP[Dap]([CO-N(Me)OMe])L[Hyp]W[Dab]([CO-N(Me)OMe])[Trp(1-CH2CO2Me)][NMeNle][NMeNle]LCG-NH2; thioether N-14)
14.1 nM	CCCC[C@H]1C(=O)N(C)[C@@H](CCCC)C(=O)N[C@@H](CC(C)C)C(=O)N[C@H](C(N)=O)C(C)(C)SCC(=O)N[C@@H](Cc2ccc(F)cc2)C(=O)N2CCCC[C@H]2C(=O)N[C@@H](CC(=O)O)C(=O)N2CCC[C@H]2C(=O)N[C@@H](CNC(=O)C(C)(C)C)C(=O)N[C@@H](CC(C)C)C(=O)N2C[C@H](O)C[C@H]2C(=O)N[C@@H](Cc2c[nH]c3ccccc23)C(=O)N[C@@H](CCNC(=O)C(C)(C)C)C(=O)N[C@@H](Cc2cn(CC(=O)O)c3ccccc23)C(=O)N1C [Example 20180] ({CH2CO}-[Phe(4-F)][Pip]DP[Dap](Piv)L[Hyp]W[Dab](Piv)[Trp(1-CH2COOH)][NMeNle][NMeNle]L[Pen]-NH2; thioether N-14)
7.8 nM	CCCC[C@H]1C(=O)N(C)[C@@H](CCCC)C(=O)N[C@@H](CCC(=O)O)C(=O)N[C@H](C(N)=O)CSCC(=O)N[C@@H](Cc2ccc(F)cc2)C(=O)N2CCCC[C@H]2C(=O)N[C@@H](CC(N)=O)C(=O)N2CCC[C@H]2C(=O)N[C@@H](CNC(=O)C(C)(C)C)C(=O)N[C@@H](CC(C)C)C(=O)N2C[C@H](O)C[C@H]2C(=O)N[C@@H](Cc2c[nH]c3ccccc23)C(=O)N[C@@H](CCNC(=O)C(C)(C)C)C(=O)N[C@@H](Cc2cn(CC(=O)O)c3ccccc23)C(=O)N1C [Example 20030] ({CH2CO}-[Phe(4-F)][Pip]NP[Dap](Piv)L[Hyp]W[Dab](Piv)[Trp(1-CH2COOH)][NMeNle][NMeNle]EC-NH2; thioether N-14)
14.2 nM	CCCC[C@H]1C(=O)N(C)[C@@H](CCCC)C(=O)N[C@@H](CC(C)C)C(=O)N[C@H](C(N)=O)CSCC(=O)N[C@@H](Cc2ccc(F)cc2)C(=O)N2CCCC[C@H]2C(=O)N[C@@H](CC(=O)O)C(=O)N2CCC[C@H]2C(=O)N[C@@H](CNC(=O)C(C)(C)C)C(=O)N[C@@H](CC(C)C)C(=O)N2C[C@H](O)C[C@H]2C(=O)N[C@@H](Cc2c[nH]c3ccccc23)C(=O)N[C@@H](CCN)C(=O)N[C@@H](Cc2cn(C)c3ccccc23)C(=O)N1C [Example 20190] ({CH2CO}-[Phe(4-F)][Pip]DP[Dap](Piv)L[Hyp]W[Dab][Trp(1-Me)][NMeNle][NMeNle]LC-NH2; thioether N-14)
4.9 nM	CCCC[C@H]1C(=O)N(C)[C@@H](CCCC)C(=O)N[C@@H](CC(C)C)C(=O)N[C@H](C(N)=O)C(C)(C)SCC(=O)N[C@@H](Cc2ccc(F)cc2)C(=O)N2CCCC[C@H]2C(=O)N[C@@H](CC(N)=O)C(=O)N2CCC[C@H]2C(=O)N[C@@H](CNC(=O)C(C)(C)C)C(=O)N[C@@H](CC(C)C)C(=O)N2C[C@H](O)C[C@H]2C(=O)N[C@@H](Cc2c[nH]c3ccccc23)C(=O)N[C@@H](CCN)C(=O)N[C@@H](Cc2cn(CC(=O)O)c3ccccc23)C(=O)N1C [Example 20010] ({CH2CO}-[Phe(4-F)][Pip]NP[Dap](Piv)L[Hyp]W[Dab][Trp(1-CH2COOH)][NMeNle][NMeNle]L[Pen]-NH2; thioether N-14)
